Melting point data for 90 molecules are collected here from a melting point compilation (Tetko et al.; mined from patent text by program, amines drawn as free bases though some values may be those of a salt).

Bounds are passed on as bounds.

The term melting point denotes the temperature of the solid-liquid transition. `CCOC(=O)C1=C(C)NN=C(CC)C1c1ccc([N+](=O)[O-])cc1` (stereo not given) showed a melting point of 141 °C.

`CC1(C)CCC(C)(C)c2cc(COc3cccc(C(=O)O)c3-c3ccc(CCO)cc3)ccc21`: the melting point was 201 to 203 °C.

`O=C(c1cc2ccccc2[nH]1)C1CSC(c2cccnc2)N1` (stereo not given): the melting point was in the range of 142 to 144 °C.

In turn, `CC(C)(C)C(=O)Oc1ccc(S(=O)(=O)c2ccc(S(N)(=O)=O)s2)cc1` came in with a melting point of 192 to 195 °C.

The molecule `CCn1cc(C(=O)O)c(=O)c2cc(F)c(N3CCN(Cc4ccc([N+](=O)[O-])cc4)CC3)c(F)c21` yielded a melting point of 241 to 242 °C.

Turning to `CCCCOc1cc(C)c(N=Nc2ccccc2)c(C)c1`, the melting point lay within 47 to 47.5 °C.

As to `O=C(CCl)Nc1ccc(C(O)(C(F)(F)F)C(F)(F)F)cc1O`, the melting point was 218 to 219 °C.

`Cc1ccc(C)c2c1C[C@@H](O)[C@@H]2Oc1cc(C(=O)N(C)C)cc2c1nc(C)n2C` (relative stereo) showed a melting point of 134 °C.

`COC(=O)c1cc(Cl)cc(Cl)n1` registered a melting point of 75 to 77 °C.

For the molecule `CC(C(=O)O)c1ccc2c(c1)CCc1ccccc1S2` (stereo not given), the melting point is 103 to 104 °C.

The molecule `N#Cc1cscc1C#N` returned a melting point of 170 to 171 °C.

Molecule `O=C1CCc2ccc(OCCCCN3CCN(c4cccc5cc(Cl)ccc45)CC3)nc2N1` had a melting point of 215 to 216 °C.

`NNC(=O)c1ccc2occ(-c3cccc(OC(F)(F)F)c3)c2c1`: the melting point was in the range of 137 to 138 °C.

As to `CC(=O)NCc1ccc2c(c1)N(C1CCN(CCc3ccc(F)cc3)CC1)CC2`, the melting point lay within 160 to 162 °C.

The molecule `CCCCCC(=O)c1c(CSc2nccn2C)nc2cc(OC)c(OC)cc2c1-c1ccc(OC)c(OC)c1` returned a melting point of 128 to 129 °C.

The molecule `CON(C)C(=O)c1cc2n(n1)CCC2` displayed a melting point of 45 to 50 °C.

Consider `Cc1cc([N+](=O)[O-])ccc1NCC1CCCO1` (stereo not given), for which the melting point fell in the range of 56 to 58 °C.

Take `COc1ccc2c(=O)[nH]c(-c3ccc(OCCNC(C)C)c(-c4ccc(S(C)(=O)=O)cc4)n3)nc2c1`: the melting point lay in the range of 204 to 205 °C.

Regarding `Cc1ccccc1NC(=O)Nc1ccc(CC(=O)NC2(c3cc(CCC(=O)O)on3)CCCC2)cc1`, the melting point was 195 to 197 °C.

With `CCN(CC)CCOCCc1ccc2sc(C(N)=O)cc2c1`, the melting point lay within 82 to 84 °C.

`Nc1ccccc1C(=O)c1ccc(OCc2ccccc2)cc1` displayed a melting point of 99 to 101 °C.

The molecule `CCOC(=O)Nn1cccc1C(=O)c1ccc(Cl)cc1Cl` had a melting point of 114 to 116 °C.

The molecule `CCOc1ccc(C(=O)CN2CCOCC2)cc1-c1nc2c(C)cccc2c(=O)[nH]1` had a melting point of 172 to 173 °C.

With `CC(C)(C)OC(=O)NC1(C(=O)NCC(F)(F)F)CC1`, the melting point was in the range of 166 to 167 °C.

Molecule `CNC(=O)c1ccccc1-c1cc(-c2ccccc2)on1` registered a melting point of 159 to 160 °C.

Regarding `Nc1cccc(C(=O)O)c1S`, the melting point lay within 255 to 258 °C.

Molecule `COC(=O)c1ccc(C(=O)O)cc1C` returned a melting point of 134 to 136 °C.

For the molecule `O=C1Cc2c([nH]c3ccc([N+](=O)[O-])cc23)-c2cc(Br)ccc2N1`, the melting point was above 330 °C.

`Fc1cccc(CC2(Cc3ccncc3)c3cccnc3-c3ncccc32)n1`: the melting point is 180 to 182 °C.

The molecule `CCSc1cccc(OC(F)(F)F)c1S(=O)(=O)NC(C)(C)C` registered a melting point of 77 °C.

Molecule `COc1cc2c(cc1C(F)(F)F)N(C(=O)Nc1cccc(S(=O)(=O)Nc3cccnc3)c1)CC2` returned a melting point above 215 °C.

As to `CCC(C)(C)c1ccc(OCC(=O)Nc2cccc(C(C)=O)c2)c(C(C)(C)CC)c1`, the melting point was determined as 135 °C.

Take `CCc1noc(-c2cn(-c3cccc(OC(C)C)c3)cn2)n1`: the melting point stood at 107 °C.

`CC1(C)C(=O)C(C(=O)c2ccc(Cl)cc2[N+](=O)[O-])C(=O)C(C)(C)C1=O`: the melting point is 76 to 82 °C.

Molecule `COc1cc2c(cc1Cl)C(Cl)Cc1ccccc1S2` (stereo not given) had a melting point of 130 to 132 °C.

Take `O=C(CBr)Nc1ccc(Br)cc1C(=O)O`: the melting point was in the range of 203 to 204 °C.

Turning to `CCN(CC)C(=O)C1(OC(=S)N(CC)CC)C=CC=NC1F` (stereo not given), the melting point was 87 to 92 °C.

In turn, `N#CC(CC(=O)c1ccc(C(F)(F)F)cc1)C1CC1` (stereo not given) returned a melting point of 91 to 93 °C.

Regarding `CC(=O)Nc1ccc(NC(=O)C=C2CC(C(=O)O)Nc3cc(Cl)cc(Cl)c32)cc1` (racemic), the melting point worked out at 185 °C.

The molecule `COc1ccc(C(O)CN2CCNC2=O)cc1OC` (stereo not given) had a melting point of 166 °C.

The molecule `CN(C)CCC(=O)OC1c2ccccc2C(=O)N1c1ccc2ccc(Cl)nc2n1` (stereo not given) registered a melting point of 150 °C.

`Cc1ccnc(NC#N)n1` registered a melting point of 203 °C.

Molecule `CCOC(=O)C(C)(C)Oc1cccc2c1C[C@@H](OC)[C@H](O)C2` (relative stereo) yielded a melting point of 153 to 155 °C.

The molecule `CCOC(=O)c1ccc2[nH]cc(C3=CCN(C)CC3)c2c1` had a melting point of 249 °C.

For `COC(=O)c1ccc(C(=O)NS(=O)(=O)c2ccc(CCNC(=O)Cc3ccc(OC)c(OC)c3)cc2)cn1`, the melting point lay within 164 to 169 °C.

`O=C(O)COc1ccc(C(=O)c2ccc([N+](=O)[O-])cc2)c(Cl)c1Cl` came in with a melting point of 172 to 175 °C.

Regarding `C#CCCC(=O)N1CCC(=Cc2ccc(C3=NCCO3)cc2)CC1`, the melting point is 118 °C.

`Cc1ccc2nc(-c3cc(C(F)(F)F)nn3-c3ccc(S(C)(=O)=O)cc3)oc2c1` registered a melting point of 209 to 210 °C.

`Nc1cccnc1C(=O)NO` had a melting point of 131 to 133 °C.

`NC(=O)Nc1cccc(CO)c1` displayed a melting point of 188 to 202 °C.

With `CN(C)C(=O)CC1(C)OCCC2=C1c1ccccc1C2` (stereo not given), the melting point is 112 to 114 °C.

As for `O=C(Cl)COc1nn(Cc2ccccc2)c2ccccc12`, the melting point lay in the range of 78 to 79 °C.

`Cc1ccc(C)c(-c2cn(C)cc(-c3ccccc3)c2=O)c1`: the melting point was in the range of 188 to 190 °C.

On to `O=C1Cc2cc(NCc3ccccc3)ccc2N1`, for which the melting point was 203 to 206 °C.

`N#Cc1cc([N+](=O)[O-])ccc1Oc1c(F)c(F)c(F)c(F)c1F` registered a melting point of 128 to 129 °C.

For `CCCP(=O)(O)CCCN`, the melting point is 210 to 213 °C.

In turn, `CCOP(=O)(CC(=O)O)CC(Cc1ccccc1)NS(=O)(=O)c1ccc(C)cc1` (stereo not given) displayed a melting point of 110 to 112 °C.

The molecule `O=C(Nc1cccc2ncccc12)N1CCN2C(=O)OC(c3ccccc3)(c3ccccc3)C2C1` (stereo not given) displayed a melting point of 234 to 236 °C.

On to `N[C@@H]1CCN(Cc2ccccc2)C[C@H]1O` (relative stereo), for which the melting point is 74.1 °C.

`COc1ccc([C@H]2[C@@H](c3ccccc3)C2(Cl)Cl)cc1` (relative stereo): the melting point lay within 59 to 60 °C.

Molecule `CC1(C)Nc2ncc(I)cc2NC1=O` gave a melting point above 300 °C.

In the case of `Oc1ccc(CCCn2ccnc2S)cc1`, the melting point is 185 °C.

On to `Cn1cc(O)c(=O)c2ccc(F)cc21`, for which the melting point was 283 to 285 °C.

In turn, `CCc1nc2c(N)nc3cc(CCC(=O)N(C)C)ccc3c2n1CC1CCOCC1` returned a melting point of 219 to 220 °C.

`O=C1N(Cc2ccccc2)OCCN1c1ccc(Cl)c(Cl)c1` returned a melting point of 76 °C.

With `COc1cc2c(cc1Br)CC(C)OC2c1ccc([N+](=O)[O-])cc1` (stereo not given), the melting point fell in the range of 128 to 129 °C.

Molecule `CCc1nc2cc(NC(C)=O)c(Cl)cc2n1-c1ccc(CCNC(=O)NS(=O)(=O)c2ccc(C)cc2)cc1` came in with a melting point of 125 to 133 °C.

`Cc1ccc(S(=O)(=O)N(CCN=[N+]=[N-])CCN=[N+]=[N-])cc1` had a melting point of 47 to 48 °C.

In turn, `CCOC(=O)C=Cc1ccc(C#N)cc1` yielded a melting point of 71 °C.

With `CCc1nn(CCO)c(CC)c1Cc1cc(C#N)cc(C#N)c1`, the melting point was in the range of 115 to 117 °C.

For the molecule `CCOc1cc(CCCN2CCc3cc(OC)c(OC)cc3C2)ccc1NC(=O)c1cccc2c(=O)c3cccc(OC)c3[nH]c12`, the melting point is 198 °C.

The molecule `COc1cc2ccnc(C=Cc3c(Cl)cccc3Cl)c2cc1OC` gave a melting point of 145 to 146 °C.

The molecule `O=C(O)c1nc2n(n1)-c1ccccc1N(c1cccc(C(F)(F)F)c1)C2` gave a melting point of 204 to 206 °C.

Regarding `CCOCc1nc2c(N)nc3ccccc3c2n1CCCCCS(=O)(=O)NC`, the melting point fell in the range of 175 to 179 °C.

For the molecule `NC(=O)Cc1nn(-c2ccccn2)c2[nH]c3ccccc3c(=O)c12`, the melting point lay in the range of 302 to 305 °C.

Molecule `Cc1[nH]c2c(ccc3sc4ccccc4c32)c1C=O` yielded a melting point of 192 to 194 °C.

`COc1ccc(Cn2cnc3c(-c4ccco4)ncnc32)cc1C` yielded a melting point of 169 to 170 °C.

In turn, `COc1ccc(C2=NN(C3CCN(S(=O)(=O)c4ccc(C)cc4)CC3)C(=O)C(C)(C)C2)cc1OC` returned a melting point of 161 to 164 °C.

In turn, `CCCCCCCCOC(=O)C(=C1SCCS1)c1cccc(C(F)(F)F)c1` gave a melting point of 42 to 43 °C.

As to `O=C(Nc1ccc(CN2C(=O)CNC2=O)cc1)c1cc(=O)c2ccccc2o1`, the melting point fell in the range of 258 to 261 °C.

Regarding `CC(Br)C(=O)c1ccc(O)cc1` (stereo not given), the melting point lay in the range of 95 to 97 °C.

For the molecule `Cc1cc2[nH]c(=O)c3cnc(Cl)cc3n2n1`, the melting point is above 300 °C.

`CC1(CC(=O)O)CCCCC1=O` (stereo not given) registered a melting point of 87 to 90 °C.

`CCOC(=O)c1ccc(CCNS(=O)(=O)C=Cc2ccccc2)cc1` had a melting point of 59 to 61 °C.

`Cn1nc(-c2c(Cl)cccc2Cl)nc1-c1cccs1`: the melting point was 161 to 163 °C.

Turning to `CC(C)NC(=O)C[C@@H]1CCCNc2ccccc21`, the melting point is 91 to 92 °C.

The molecule `CN1C(=O)N(C)C(=O)C(Cc2ccccc2)(Cc2ccccc2)C1=O` came in with a melting point of 128 to 129 °C.

`CCCCCCCCCCOc1ccc(C(=O)O[C@@H]2CC[C@H](NC(=O)[C@H](OC)[C@H](O)[C@@H](O)[C@H](O)/C=C/C(C)(C)C)C(=O)NC2)cc1`: the melting point fell in the range of 70 to 74 °C.

On to `Cc1c(F)c([N+](=O)[O-])cc([N+](=O)[O-])c1F`, for which the melting point is 81 to 82 °C.

`CC(C)Cn1c(CONC(=O)NC(C)C)nc2c(N)nc3ccccc3c21` displayed a melting point of 218 to 219 °C.
